Calls of active or inactive are those of the source.
Assays:
[1] = test system: H4; experiment: Luminescence Cell-Based Dose Response HTS to Identify Activators of 5'UTR Stem-Loop Driven Prion Protein mRNA Translation in H4 Neuroglioblastoma Cells. [Related pubchem assays: 1829 (Project Summary), 1814 (Primary HTS)]; format: functional; conditions: Homo sapiens
[2] = Luminescence Cell-Based Dose Response to Identify Activators of Luciferase Translation or Activity in H4-C Neuroglioblastoma Cells. [Related pubchem assays: 1829 (Project Summary), 1814 (Primary HTS)]; format: functional
[3] = Luminescence Cell-Based Dose Response to Identify Activators of 5'UTR Stem-Loop Driven Prion Protein mRNA Translation in H4-C Neuroglioblastoma Cells. [Related pubchem assays: 1829 (Project Summary), 1814 (Primary HTS)]; format: functional
[4] = Luminescence Cell-Based Dose Retest to Confirm Inhibitors of Cancer Stem Cells. [Related pubchem assays (depositor defined):AID2717, AID2721]; format: functional; conditions: Homo sapiens
[5] = Luminescence Cell-Based Dose Confirmation to Identify Activators of 5'UTR Stem-Loop Driven Alpha-Synuclein mRNA Translation in H4 Neuroglioblastoma Cells. [Related pubchem assays: 1829 (Project Summary), 1814 (Primary HTS)]; format: functional
[6] = Luminescence Cell-Based Dose Response HTS to Identify Activators of Luciferase Translation or Activity in H4 […] Cells. [Related pubchem assays: 1829 (Project Summary), 1814 (Primary HTS)]; format: functional
[7] = biological target: Cytochrome P450 2D6 (Homo sapiens, UniProt P10635);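 further: CYP2D6 member of a cytochrome P450 panel assay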
Cytochrome P450 2D6, sequence (P10635 whole entry): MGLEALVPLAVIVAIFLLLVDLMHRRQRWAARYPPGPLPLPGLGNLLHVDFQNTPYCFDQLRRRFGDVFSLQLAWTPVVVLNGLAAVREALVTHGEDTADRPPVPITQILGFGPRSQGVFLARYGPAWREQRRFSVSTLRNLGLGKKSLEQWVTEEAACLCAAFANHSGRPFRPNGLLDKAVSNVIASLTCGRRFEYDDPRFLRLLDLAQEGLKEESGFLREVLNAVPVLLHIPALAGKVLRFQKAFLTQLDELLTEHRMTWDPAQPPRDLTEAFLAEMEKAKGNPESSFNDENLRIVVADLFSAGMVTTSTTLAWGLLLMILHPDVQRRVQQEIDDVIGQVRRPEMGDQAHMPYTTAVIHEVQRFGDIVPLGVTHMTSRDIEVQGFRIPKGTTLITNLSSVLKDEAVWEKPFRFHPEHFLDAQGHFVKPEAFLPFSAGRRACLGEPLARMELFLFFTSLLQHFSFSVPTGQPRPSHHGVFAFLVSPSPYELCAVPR

[8] = biological target: Glutathione-S-transferase (Schistosoma japonicum, UniProt Q26513); experiment: GST-antibody interaction or FRET quenching – biochemical, TR-FRET, artefact control for Vif-APOBEC3G degradation inhibitor project, dose response (AID 1117362); format: functional
Glutathione-S-transferase, sequence (Q26513 whole entry): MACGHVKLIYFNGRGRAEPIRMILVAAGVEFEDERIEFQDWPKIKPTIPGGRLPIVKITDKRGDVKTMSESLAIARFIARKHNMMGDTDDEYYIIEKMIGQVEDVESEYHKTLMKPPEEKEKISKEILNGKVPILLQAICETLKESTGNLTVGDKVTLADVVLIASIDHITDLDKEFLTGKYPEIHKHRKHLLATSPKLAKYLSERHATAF

[9] = biological target: Large T antigen (Simian virus 40, UniProt P03070); format: functional, Betapolyomavirus macacae;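 further: Confirmatory-stage PubChem screen for compounds that inhibit SV40 T antigen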
Large T antigen, sequence (P03070 whole entry): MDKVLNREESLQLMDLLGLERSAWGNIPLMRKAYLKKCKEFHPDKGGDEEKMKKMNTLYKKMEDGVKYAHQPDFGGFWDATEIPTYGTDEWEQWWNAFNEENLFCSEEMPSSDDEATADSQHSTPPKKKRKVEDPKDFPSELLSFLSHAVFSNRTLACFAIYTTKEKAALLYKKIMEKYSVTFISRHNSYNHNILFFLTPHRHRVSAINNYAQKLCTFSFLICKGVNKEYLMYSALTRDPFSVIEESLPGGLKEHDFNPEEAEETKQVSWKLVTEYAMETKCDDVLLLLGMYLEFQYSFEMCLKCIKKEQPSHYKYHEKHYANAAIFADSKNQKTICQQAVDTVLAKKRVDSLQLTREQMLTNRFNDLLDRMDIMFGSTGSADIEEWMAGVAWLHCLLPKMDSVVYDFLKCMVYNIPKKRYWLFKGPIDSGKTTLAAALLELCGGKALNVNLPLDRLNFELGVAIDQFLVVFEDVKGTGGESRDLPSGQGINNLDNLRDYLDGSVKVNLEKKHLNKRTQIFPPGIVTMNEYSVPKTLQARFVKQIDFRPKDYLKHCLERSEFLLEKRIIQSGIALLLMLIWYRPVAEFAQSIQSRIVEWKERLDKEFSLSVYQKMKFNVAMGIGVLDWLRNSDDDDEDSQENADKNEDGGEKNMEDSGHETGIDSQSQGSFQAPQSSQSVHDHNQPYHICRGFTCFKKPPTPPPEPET

[10] = cytotoxicity toward HT-29 cells – cell-based, CellTiter-Glo luminescence, IC50, dose response (AID 1117330); format: functional
[11] = Reduced DLD-1 viability, concentration-response, CellTiter-Glo luminescence (AID 1117352); format: functional
[12] = CellTiter-Glo luminescence survival assay, SW480 colon tumor line, concentration-response curve, half-maximal inhibitory concentration (AID 1117338); format: functional
[13] = HCT116 cell viability decrease, GSK3B pretreatment – CellTiter-Glo, IC50, dose response (AID 1117339); format: functional; conditions: HCT-116
[14] = cytotoxicity toward HCT116 cells – cell-based, CellTiter-Glo luminescence, IC50, dose response (AID 1117332); format: functional; conditions: HCT-116
[15] = cytotoxicity toward Colo320 cells – cell-based, CellTiter-Glo luminescence, IC50, dose response (AID 1117334); format: functional; conditions: COLO 320
[16] = SNU-C1 cell viability reduction, dose response, CellTiter-Glo luminescence (AID 1117323); format: functional, cell-based
[17] = RKO cell viability reduction, dose response, CellTiter-Glo luminescence (AID 1117322); format: functional
[18] = HIV-1 Vif–A3G interaction blockers – biochemical, TR-FRET, GST-Vif 1-94, biotin-A3G peptide, dose response retest, primary screen (AID 1117319); format: functional;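 further: TR-FRET signal of purified GST-Vif binding a biotinylated A3G peptide; inhibitors lower the FRET signal by blocking Vif and A3G binding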
[19] = OVCAR8 cell viability loss – plate reader, dry powder samples, PAX8 project, dose response (AID 743197); format: functional, cell-based; conditions: OVCAR-8
[20] = A2780 cell killing – plate reader, dry powder samples, cytotoxicity control, dose response (AID 743046); format: functional, cell-based
[21] = biological target: Paired box protein Pax-8 (Homo sapiens, UniProt Q06710); experiment: PAX8 transcriptional activity inhibition in RMG-I – RMG-I cells, luciferase, cherry-pick, dose response (AID 687027); format: functional, cell-based;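 further: luciferase reporter driven by Pax8 target thyroperoxidase promoter measured by SteadyGlo luminescence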
Paired box protein Pax-8, sequence (Q06710 whole entry): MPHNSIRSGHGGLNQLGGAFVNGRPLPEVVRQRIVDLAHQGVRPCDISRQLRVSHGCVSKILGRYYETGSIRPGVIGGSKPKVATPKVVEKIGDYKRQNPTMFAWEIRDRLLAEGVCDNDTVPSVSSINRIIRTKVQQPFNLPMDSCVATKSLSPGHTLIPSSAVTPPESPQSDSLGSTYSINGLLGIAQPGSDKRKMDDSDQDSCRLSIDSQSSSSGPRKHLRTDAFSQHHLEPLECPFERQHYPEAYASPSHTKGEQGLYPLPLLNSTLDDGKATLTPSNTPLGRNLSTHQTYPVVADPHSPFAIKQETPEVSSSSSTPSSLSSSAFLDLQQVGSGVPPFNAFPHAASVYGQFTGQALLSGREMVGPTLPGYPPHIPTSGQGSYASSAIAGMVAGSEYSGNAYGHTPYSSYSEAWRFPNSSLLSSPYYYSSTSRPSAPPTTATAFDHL

[22] = OVCAR-3 cell viability loss – plate reader, dry powder samples, PAX8 inhibitor project, dose response (AID 743044); format: functional, cell-based
[23] = test system: H9c2; experiment: cells; format: functional, cell-based; conditions: Rattus norvegicus, H9c2, Myocardium;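 further: confirmatory concentration-response retest of ultra-high-throughput screening hits for modulation of myocardial damage; cell death induced by hydrogen peroxide oxidative stress; compound pretreatment for 60 min then peroxide exposure for 2 h; potency is for protecting the cells against peroxide damage rather than for killing them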
[24] = test system: Streptococcus sp. 'group A'; experiment: Streptococcus pyogenes SK(-)GAS viability under kanamycin – luminescence, BacTiterGlo, confirmation, counter-screen for streptokinase expression inhibitor project, dose response (AID 1900); format: functional, organism-based
[25] = biological target: T1, Endoribonuclease toxin MazF (Escherichia coli K-12, UniProt P0AE70); experiment: activation of MazEF endoribonuclease cleavage – biochemical, fluorescence, single-stranded RNA substrate, uHTS hits, dose response (AID 588481); format: functional
T1 sequence (P0AE70 whole entry): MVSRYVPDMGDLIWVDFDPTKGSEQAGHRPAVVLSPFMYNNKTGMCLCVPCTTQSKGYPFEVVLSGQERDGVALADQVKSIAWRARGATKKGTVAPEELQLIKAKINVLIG

[26] = biological target: Ephrin type-A receptor 4 (Mus musculus, UniProt Q03137); experiment: EphA4 ligand-binding antagonists – biochemical, colorimetric, mouse EphA4, primary screen (AID 689); format: functional
Ephrin type-A receptor 4, sequence (Q03137 whole entry): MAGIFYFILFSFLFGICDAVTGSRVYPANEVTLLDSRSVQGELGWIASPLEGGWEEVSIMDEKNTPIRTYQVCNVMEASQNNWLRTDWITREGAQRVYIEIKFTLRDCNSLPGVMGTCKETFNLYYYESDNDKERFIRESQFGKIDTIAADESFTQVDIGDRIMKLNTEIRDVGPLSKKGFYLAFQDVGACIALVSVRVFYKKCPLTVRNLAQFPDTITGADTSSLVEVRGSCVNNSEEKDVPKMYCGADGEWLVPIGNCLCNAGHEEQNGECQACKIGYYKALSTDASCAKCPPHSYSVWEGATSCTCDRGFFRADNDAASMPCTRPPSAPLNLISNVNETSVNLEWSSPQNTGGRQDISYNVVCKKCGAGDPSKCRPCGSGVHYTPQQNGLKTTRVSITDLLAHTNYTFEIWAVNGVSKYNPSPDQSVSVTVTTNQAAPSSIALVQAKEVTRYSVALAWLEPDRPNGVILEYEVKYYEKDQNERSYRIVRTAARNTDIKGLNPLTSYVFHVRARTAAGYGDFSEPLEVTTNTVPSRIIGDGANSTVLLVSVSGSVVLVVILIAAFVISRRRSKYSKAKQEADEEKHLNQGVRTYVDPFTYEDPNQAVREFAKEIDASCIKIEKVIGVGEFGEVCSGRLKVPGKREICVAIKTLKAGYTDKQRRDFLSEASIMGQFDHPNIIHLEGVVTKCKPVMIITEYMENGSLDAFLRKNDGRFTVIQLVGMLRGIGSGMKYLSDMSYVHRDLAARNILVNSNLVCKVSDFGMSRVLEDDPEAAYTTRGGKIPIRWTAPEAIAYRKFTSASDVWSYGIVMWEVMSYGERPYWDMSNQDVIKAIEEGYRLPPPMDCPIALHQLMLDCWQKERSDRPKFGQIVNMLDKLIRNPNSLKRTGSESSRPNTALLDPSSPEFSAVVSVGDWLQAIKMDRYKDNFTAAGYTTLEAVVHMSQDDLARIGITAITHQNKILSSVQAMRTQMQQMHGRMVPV

[27] = biological target: T1, Endoribonuclease toxin MazF; experiment: substrate-only fluorescence increase artefacts – biochemical, single-stranded RNase substrate, counter-screen for MazEF activator project, dose response (AID 588502); format: functional
[28] = test system: Streptococcus; experiment: GAS UMAA2166 growth inhibition – luminescence, BacTiterGlo, counter-screen for streptokinase expression inhibitor project, dose response (AID 1915); format: functional, organism-based;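 further: potency for reduction of bacterial viability or growth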
[29] = biological target: T2, Streptokinase A (Streptococcus pyogenes serotype M1, UniProt P10520); experiment: viability-normalized secreted streptokinase activity reduction – plasminogen activation absorbance, OD405, dose response (AID 1914); format: functional, Streptococcus pyogenes M1 GAS;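 further: secreted streptokinase activity via plasminogen activation per viability signal from cell pellet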
T2 sequence (P10520 whole entry): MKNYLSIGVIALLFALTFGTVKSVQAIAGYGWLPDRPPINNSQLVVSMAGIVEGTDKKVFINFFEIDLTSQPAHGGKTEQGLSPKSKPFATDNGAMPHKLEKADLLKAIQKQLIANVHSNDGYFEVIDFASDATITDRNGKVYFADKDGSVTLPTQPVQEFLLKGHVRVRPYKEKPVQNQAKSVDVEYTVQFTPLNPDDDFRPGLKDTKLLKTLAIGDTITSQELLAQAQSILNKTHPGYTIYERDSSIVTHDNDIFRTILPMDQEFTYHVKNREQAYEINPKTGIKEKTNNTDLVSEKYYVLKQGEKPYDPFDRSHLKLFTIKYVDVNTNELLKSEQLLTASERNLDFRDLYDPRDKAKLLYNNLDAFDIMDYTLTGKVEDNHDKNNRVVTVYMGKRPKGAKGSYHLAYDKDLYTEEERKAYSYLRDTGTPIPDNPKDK

Compound: Cc1sc(NC(=O)C2CCCCC2)c(C#N)c1-c1ccccc1
- EC50 [1]: 7.76 µM (active)
- EC50 [2]: 0.375 µM (active)
- EC50 [3]: 0.689 µM (active)
- AC50 [4]: 3.43 µM (active)
- EC50 [5]: 0.174 µM (active)
- EC50 [6]: < 0.1 µM (active)
- AC50 [7]: 7.08 µM (inconclusive)

Compound: C=CCn1c(C)cc(-c2csc(N)n2)c1C
- IC50 [8]: 28.2 µM (active)

Compound: Nc1ccc(-c2nc3cc(N)ccc3n2CCO)cc1
- IC50 [8]: > 100 µM (active)
- IC50 [9]: 41.7 µM (active)

Compound: O=[N+]([O-])c1cccc(S(=O)(=O)NCCNS(=O)(=O)c2cccc([N+](=O)[O-])c2)c1 [DINSED]
- IC50 [10]: > 20 µM (inactive)
- IC50 [11]: > 20 µM (inactive)
- IC50 [12]: > 20 µM (inactive)
- IC50 [13]: > 20 µM (inactive)
- IC50 [14]: > 20 µM (inactive)
- IC50 [15]: > 20 µM (inactive)
- IC50 [16]: > 20 µM (inactive)
- IC50 [17]: > 20 µM (inactive)

Compound: CC(C(=O)N1CCOCC1)(c1ccccc1)c1ccccc1
- IC50 [18]: > 100 µM (active)

Compound: C[C@H]1CN([C@@H](C)CO)C(=O)Cc2cc(NC(=O)C3CC3)ccc2O[C@@H]1CN(C)Cc1ccc(-c2ccccc2)cc1
- AC50 [19]: > 70 µM (inactive)
- AC50 [20]: 21.9 µM (active)
- AC50 [21]: 6.35 µM (active)
- AC50 [22]: 38 µM (active)

Compound: CCn1c(O)c(/C=N/N=C/c2ccccc2)c2ccc(C3=NNC(=O)CC3)cc21
- IC50 [23]: > 79 µM (inactive)
- EC50 [24]: 6.42 µM (active)
- EC50 [25]: > 99 µM (inactive)
- IC50 [26]: > 100 µM (not active)
- EC50 [27]: > 99 µM (inactive)
- EC50 [28]: 10.5 µM (active)
- EC50 [29]: > 150 µM (not active)

Reference: ChEMBL document CHEMBL1201862, “PubChem BioAssay data set” (2004)
